Assay results as given in PubChem BioAssay (NCI).
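GI50 marks 50% less growth. TGI is the concentration that stops growth completely.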

Experiments:
Test in all cases: NCI anticancer screen, dose series, 384-well format
A549 NSCLC = system: A549 NSCLC
786-0 renal = system: 786-0 renal
SF-295 CNS = system: SF-295 CNS
NCI-H460 NSCLC = system: NCI-H460 NSCLC
SK-OV-3 ovarian = system: SK-OV-3 ovarian
NCI-H522 lung = system: NCI-H522 lung
HCC-2998 colon = system: HCC-2998 colon
MDA-MB-468 breast = system: MDA-MB-468 breast
MDA-MB-435 melanoma = system: MDA-MB-435 melanoma
SK-MEL-28 melanoma = system: SK-MEL-28 melanoma
CCRF-CEM leukemia = system: CCRF-CEM leukemia
NCI-H226 lung = system: NCI-H226 lung
OVCAR-3 ovarian = system: OVCAR-3 ovarian
UACC-257 melanoma = system: UACC-257 melanoma
OVCAR-5 ovarian = system: OVCAR-5 ovarian
U251 glioblastoma = system: U251 glioblastoma
HS 578T breast = system: HS 578T breast
DU-145 prostate = system: DU-145 prostate
SF-268 CNS = system: SF-268 CNS
PC-3 prostate = system: PC-3 prostate
MDA-MB-231 breast = system: MDA-MB-231 breast
IGROV1 ovarian = system: IGROV1 ovarian
T-47D breast = system: T-47D breast
CAKI-1 renal = system: CAKI-1 renal
SW-620 colon = system: SW-620 colon
HCT-15 colon = system: HCT-15 colon
RXF 393 renal = system: RXF 393 renal
MOLT-4 leukemia = system: MOLT-4 leukemia
SNB-19 CNS = system: SNB-19 CNS
UO-31 renal = system: UO-31 renal
NCI/ADR-RES ovarian = system: NCI/ADR-RES ovarian
OVCAR-4 ovarian = system: OVCAR-4 ovarian
OVCAR-8 ovarian = system: OVCAR-8 ovarian
LOX IMVI melanoma = system: LOX IMVI melanoma
NCI-H23 lung = system: NCI-H23 lung
BT-549 breast = system: BT-549 breast
KM12 colon = system: KM12 colon
HT29 colon = system: HT29 colon
TK-10 renal = system: TK-10 renal
SK-MEL-2 melanoma = system: SK-MEL-2 melanoma
A498 renal = system: A498 renal
MCF7 breast = system: MCF7 breast
SR leukemia = system: SR leukemia
HOP-92 NSCLC = system: HOP-92 NSCLC
K-562 leukemia = system: K-562 leukemia
HOP-62 NSCLC = system: HOP-62 NSCLC
MALME-3M melanoma = system: MALME-3M melanoma
EKVX NSCLC = system: EKVX NSCLC
M14 melanoma = system: M14 melanoma
SK-MEL-5 melanoma = system: SK-MEL-5 melanoma
NCI-H322M lung = system: NCI-H322M lung
SNB-75 CNS = system: SNB-75 CNS
RPMI-8226 leukemia = system: RPMI-8226 leukemia
HL-60(TB) leukemia = system: HL-60(TB) leukemia
SN12C renal = system: SN12C renal
SF-539 CNS = system: SF-539 CNS
HCT-116 colon = system: HCT-116 colon
COLO 205 colon = system: COLO 205 colon
UACC-62 melanoma = system: UACC-62 melanoma

For CCN1CCC(Oc2c(C#N)ncc3[nH]c4ncccc4c23)CC1, the GI50 (A549 NSCLC) was greater than 100 µM, the TGI (A549 NSCLC) was greater than 100 µM and the GI50 ([…]-0 renal) was 2.52 µM. The TGI (786-0 renal) was greater than 100 µM, the GI50 (SF-295 CNS) was 0.12 µM and the TGI (SF-295 CNS) was 0.619 µM. It also gave a GI50 (NCI-H460 NSCLC) of 0.997 µM, a TGI (NCI-H460 NSCLC) of 3.94 µM and a GI50 (SK-OV-3 ovarian) of 0.578 µM. The TGI (SK-OV-3 ovarian) was greater than 24 µM, the GI50 (NCI-H522 lung) was 3.19 µM and the TGI (NCI-H522 lung) was greater than 100 µM. For the same compound, the GI50 (HCC-2998 colon) was 0.0933 µM, the TGI (HCC-2998 colon) was 0.41 µM and the TGI (MDA-MB-468 breast) was greater than 22.5 µM. It also gave a GI50 (MDA-MB-435 melanoma) of 0.52 µM, a TGI (MDA-MB-435 melanoma) of 1.76 µM and a GI50 (SK-MEL-28 melanoma) greater than 100 µM. For the same compound, the TGI (SK-MEL-28 melanoma) was greater than 100 µM, the GI50 (CCRF-CEM leukemia) was 0.182 µM and the TGI (CCRF-CEM leukemia) was 0.356 µM. It also gave a GI50 (NCI-H226 lung) greater than 23.5 µM, a TGI (NCI-H226 lung) greater than 100 µM and a GI50 (OVCAR-3 ovarian) of 0.501 µM. For the same compound, the TGI (OVCAR-3 ovarian) was 1.18 µM, the GI50 (UACC-257 melanoma) was greater than 100 µM and the TGI (UACC-257 melanoma) was greater than 100 µM. For the same compound, the GI50 (OVCAR-5 ovarian) was 2.65 µM, the TGI (OVCAR-5 ovarian) was greater than 100 µM and the GI50 (U251 glioblastoma) was 1.59 µM. The TGI (U251 glioblastoma) was greater than 100 µM, the GI50 (HS 578T breast) was 0.199 µM and the TGI (HS 578T breast) was 1.4 µM. For the same compound, the GI50 (DU-145 prostate) was 5.9 µM, the TGI (DU-145 prostate) was greater than 100 µM and the GI50 (SF-268 CNS) was 3.5 µM. For the same compound, the TGI (SF-268 CNS) was 14.8 µM, the GI50 (PC-3 prostate) was 4.79 µM and the TGI (PC-3 prostate) was greater than 90.2 µM. The GI50 (MDA-MB-231 breast) was 26.3 µM, the TGI (MDA-MB-231 breast) was 69.8 µM and the GI50 (IGROV1 ovarian) was 1.63 µM. The TGI (IGROV1 ovarian) was greater than 100 µM, the GI50 (T-47D breast) was greater than 100 µM and the TGI (T-47D breast) was greater than 100 µM. For the same compound, the GI50 (CAKI-1 renal) was 3.4 µM, the TGI (CAKI-1 renal) was greater than 100 µM and the GI50 (SW-620 colon) was 2.3 µM. For the same compound, the TGI (SW-620 colon) was 5.54 µM, the GI50 (HCT-15 colon) was 2.26 µM and the TGI (HCT-15 colon) was greater than 88.1 µM. The GI50 (RXF 393 renal) was 0.0515 µM, the TGI (RXF 393 renal) was 0.211 µM and the GI50 (MOLT-4 leukemia) was 0.172 µM. For the same compound, the TGI (MOLT-4 leukemia) was 0.327 µM, the GI50 (SNB-19 CNS) was 4.56 µM and the TGI (SNB-19 CNS) was greater than 100 µM. It also gave a GI50 (UO-31 renal) of 0.221 µM, a TGI (UO-31 renal) of 1.65 µM and a GI50 (NCI/ADR-RES ovarian) of 0.13 µM. The TGI (NCI/ADR-RES ovarian) was 0.438 µM, the GI50 (OVCAR-4 ovarian) was greater than 100 µM and the TGI (OVCAR-4 ovarian) was greater than 100 µM. For the same compound, the GI50 (OVCAR-8 ovarian) was 1.01 µM, the TGI (OVCAR-8 ovarian) was greater than 100 µM and the GI50 (LOX IMVI melanoma) was 1.67 µM. For the same compound, the TGI (LOX IMVI melanoma) was greater than 100 µM, the GI50 (NCI-H23 lung) was 0.423 µM and the TGI (NCI-H23 lung) was 18.4 µM. The GI50 (BT-549 breast) was 0.147 µM, the TGI (BT-549 breast) was 0.426 µM and the GI50 (KM12 colon) was 0.64 µM. The TGI (KM12 colon) was 3.9 µM, the GI50 (HT29 colon) was 5.96 µM and the TGI (HT29 colon) was greater than 100 µM. It also gave a GI50 (TK-10 renal) of 0.329 µM, a GI50 (SK-MEL-2 melanoma) of 1.17 µM and a TGI (SK-MEL-2 melanoma) of 4.47 µM. It also gave a GI50 (A498 renal) of less than 0.0456 µM, a TGI (A498 renal) of 0.133 µM and a GI50 (MCF7 breast) of 0.317 µM. For the same compound, the TGI (MCF7 breast) was greater than 100 µM, the GI50 (SR leukemia) was less than 0.0396 µM and the TGI (SR leukemia) was 0.0928 µM. The GI50 (HOP-92 NSCLC) was 0.183 µM, the GI50 (K-562 leukemia) was 0.253 µM and the TGI (K-562 leukemia) was 0.694 µM. The GI50 (HOP-62 NSCLC) was 0.311 µM, the TGI (HOP-62 NSCLC) was 2.06 µM and the GI50 (MALME-3M melanoma) was 9.76 µM. The TGI (MALME-3M melanoma) was greater than 100 µM, the GI50 (EKVX NSCLC) was greater than 100 µM and the TGI (EKVX NSCLC) was greater than 100 µM. For the same compound, the GI50 (M14 melanoma) was 0.398 µM, the TGI (M14 melanoma) was 1.65 µM and the GI50 (SK-MEL-5 melanoma) was 2.61 µM. The TGI (SK-MEL-5 melanoma) was greater than 100 µM, the GI50 (NCI-H322M lung) was 0.449 µM and the TGI (NCI-H322M lung) was greater than 100 µM. It also gave a GI50 (SNB-75 CNS) of 7.16 µM, a TGI (SNB-75 CNS) greater than 57.8 µM and a GI50 (RPMI-8226 leukemia) of 0.72 µM. The TGI (RPMI-8226 leukemia) was 1.97 µM, the GI50 (HL-60(TB) leukemia) was 0.548 µM and the TGI (HL-60(TB) leukemia) was 1.04 µM. It also gave a GI50 (SN12C renal) of 3.25 µM, a TGI (SN12C renal) greater than 52.1 µM and a GI50 (SF-539 CNS) of 0.0858 µM. It also gave a TGI (SF-539 CNS) of 0.273 µM, a GI50 (HCT-116 colon) of 1.27 µM and a TGI (HCT-116 colon) of 2.85 µM. For the same compound, the GI50 (COLO 205 colon) was 2.52 µM, the TGI (COLO 205 colon) was 5.81 µM and the GI50 (UACC-62 melanoma) was 5.29 µM. The TGI (UACC-62 melanoma) was 27.5 µM.
